Reference: patent US20070135490A1, “Phenetanolamine derivatives” (priority 2003, published 2007)

The molecules below were run against T1, human beta-2 receptor (Homo sapiens, UniProt P07550) (assay: Chinese hamster ovary cells co-expressing the human receptor with a reporter gene, cAMP measurement in whole cells or membranes (Method 2)). Conditions: CHO cells or membranes, read-out: pEC50 at the human beta-2 receptor (converted).
T1 construct: expressed in transfected cells; host or cells: Chinese hamster ovary cells (whole cells or membranes derived from them)
T1 sequence (P07550 whole entry): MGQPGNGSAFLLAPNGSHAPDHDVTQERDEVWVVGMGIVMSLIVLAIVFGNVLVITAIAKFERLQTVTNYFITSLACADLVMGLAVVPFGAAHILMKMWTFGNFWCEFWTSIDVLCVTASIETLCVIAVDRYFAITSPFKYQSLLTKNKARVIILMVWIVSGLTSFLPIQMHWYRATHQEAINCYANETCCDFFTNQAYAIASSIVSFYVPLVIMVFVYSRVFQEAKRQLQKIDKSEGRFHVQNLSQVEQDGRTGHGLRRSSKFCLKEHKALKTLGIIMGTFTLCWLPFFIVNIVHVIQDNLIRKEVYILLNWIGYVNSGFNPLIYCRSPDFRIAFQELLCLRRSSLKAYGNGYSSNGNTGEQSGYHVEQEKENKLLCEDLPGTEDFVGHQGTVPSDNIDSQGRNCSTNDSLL
Assay type: cell-based
Experimental: Potency of compounds of the invention at the human beta 2, 1 and 3 receptors was also determined using Chinese hamster ovary cells co-expressing the human receptor with a reporter gene. Studies were performed using either whole cells or membranes derived from those cells.
The three beta-receptors are coupled via the Gs G-protein to cause a simulation of adenylate cyclase resulting in increased levels of cAMP in the cell. For direct cAMP measurements either membranes or cells have been used with either the HitHunter enzyme fragment complementation kit (DiscoveRx) or the FP^2 fluorescence polarisation kit (Perkin Elmer) to quantify the levels of cAMP present. These assays provide a measure of agonist potency and intrinsic activity of the compounds at the various receptors. […]
In this assay the potency of compounds at the human beta-2 receptor is expressed as a pEC50 value. Compounds of examples 12-26, 28-50 and 52-64 had pEC50 values greather than 6. […] No result is available for the compound of example 51.

Row | Compound | EC50 [nM]
1 | Cc1cc(C)cc(COCCOCc2cccc(CCNC[C@H](O)c3ccc(O)c(CO)c3)c2)c1 [Example 16, Formic acid compound with 4-[(1R)-2-({2-[3-({2-[(3,5-dimethylbenzyl)oxy]ethoxy}methyl)phenyl]ethyl}amino)-1-hydroxyethyl]-2-(hydroxymethyl)phenol (1:1)] | < 1000
2 | N#Cc1cccc(CCCCOCc2cccc(CCNC[C@H](O)c3ccc(O)c(CO)c3)c2)c1 [Example 37, Formic acid compound with 3-[4-({3-[2-({(2R)-2-hydroxy-2-[4-hydroxy-3-(hydroxymethyl)phenyl]ethyl}amino)ethyl]benzyl}oxy)butyl]benzonitrile (1:1)] | < 1000
3 | OCc1cc([C@@H](O)CNCCc2cccc(COCCOCc3cccc(OC(F)(F)F)c3)c2)ccc1O [Example 18, Formic acid compound with 2-(hydroxymethyl)-4-{(1R)-1-hydroxy-2-[(2-{3-[(2-{[3-(trifluoromethoxy)benzyl]oxy}ethoxy)methyl]phenyl}ethyl)amino]ethyl}phenol (1:1)] | < 1000
4 | OCc1cc([C@@H](O)CNCCc2cccc(COCCOCc3c(Cl)cccc3Cl)c2)ccc1O [Example 14, Formic acid compound with 4-[(1R)-2-({2-[3-({2-[(2,6-dichlorobenzyl)oxy]ethoxy}methyl)phenyl]ethyl}amino)-1-hydroxyethyl]-2-(hydroxymethyl)phenol (1:1)] | < 1000
5 | OCc1cc([C@@H](O)CNCCc2cccc(COCCOCc3cccc(F)c3)c2)ccc1O [Example 15, Formic acid compound with 4-[(1R)-2-({2-[3-({2-[(3-fluorobenzyl)oxy]ethoxy}methyl)phenyl]ethyl}amino)-1-hydroxyethyl]-2-(hydroxymethyl)phenol (1:1)] | < 1000
6 | N#Cc1cccc(CCCOCc2cccc(CCNC[C@H](O)c3ccc(O)c(CO)c3)c2)c1 [Example 22, Formic acid compound with 3-[3-({3-[2-({(2R)-2-hydroxy-2-[4-hydroxy-3-(hydroxymethyl)phenyl]ethyl}amino)ethyl]benzyl}oxy)propyl]benzonitrile (1:1)] | < 1000
7 | COc1cccc(COCCOCc2cccc(CCNC[C@H](O)c3ccc(O)c(CO)c3)c2)c1 [Example 17, Formic acid compound with 4-[(1R)-1-hydroxy-2-({2-[3-({2-[(3-methoxybenzyl)oxy]ethoxy}methyl)phenyl]ethyl}amino)ethyl]-2-(hydroxymethyl)phenol (1:1)] | < 1000
8 | OCc1cc([C@@H](O)CNCCc2cccc(COCCCCc3c(Cl)cccc3Cl)c2)ccc1O [Example 57, Formic acid compound with 4-((1R)-2-{[2-(3-{[4-(2,6-dichlorophenyl)butoxy]methyl}phenyl)ethyl]amino}-1-hydroxyethyl)-2-(hydroxymethyl)phenol (1:1)] | < 1000
9 | [O-][S+](c1cccc(COCCOCc2cccc(CCNC[C@H](O)c3ccc(O)c(CO)c3)c2)c1)C1CCCC1 (stereo partly drawn) [Example 34, Formic acid compound with 4-{(1R)-2-[(2-{3-[(2-{[3-(cyclopentylsulfinyl)benzyl]oxy}ethoxy)methyl]phenyl}ethyl)amino]-1-hydroxyethyl}-2-(hydroxymethyl)phenol (1:1)] | < 1000
10 | NS(=O)(=O)c1cccc(CCCCOCc2cccc(CCNC[C@H](O)c3ccc(O)c(CO)c3)c2)c1 [Example 12, Formic acid compound with 3-[4-({3-[2-({(2R)-2-Hydroxy-2-[4-hydroxy-3-(hydroxymethyl)phenyl]ethyl}amino)ethyl]benzyl}oxy)butyl]benzenesulfonamide (1:1)] | < 1000
11 | OCc1cc([C@@H](O)CNCCc2cccc(COCCc3ccccc3O)c2)ccc1O [Example 25, Formic acid compound with 4-((1R)-1-hydroxy-2-{[2-(3-{[2-(2-hydroxyphenyl)ethoxy]methyl}phenyl)ethyl]amino}ethyl)-2-(hydroxymethyl)phenol (1:1)] | < 1000
12 | OCc1cc([C@@H](O)CNCCc2cccc(COCCCCc3cccc(O)c3)c2)ccc1O [Example 19, Formic acid compound with 4-((1R)-1-hydroxy-2-{[2-(3-{[4-(3-hydroxyphenyl)butoxy]methyl}phenyl)ethyl]amino}ethyl)-2-(hydroxymethyl)phenol (1:1)] | < 1000
13 | CS(=O)(=O)c1cccc(CCCCOCc2cccc(CCNC[C@H](O)c3ccc(O)c(CO)c3)c2)c1 [Example 62, Formic acid compound with 2-(hydroxymethyl)-4-[(1R)-1-hydroxy-2-({2-[3-({4-[3-(methylsulfonyl)phenyl]butoxy}methyl)phenyl]ethyl}amino)ethyl]phenol (1:1)] | < 1000
14 | CS(=O)(=O)c1ccc(CCCOCc2cccc(CCNC[C@H](O)c3ccc(O)c(CO)c3)c2)cc1 [Example 23, Formic acid compound with 2-(hydroxymethyl)-4-[(1R)-1-hydroxy-2-({2-[3-({3-[4-(methylsulfonyl)phenyl]propoxy}methyl)phenyl]ethyl}amino)ethyl]phenol (1:1)] | < 1000
15 | OCc1cc([C@@H](O)CNCCc2cccc(COCc3ccc(O)cc3)c2)ccc1O [Example 26, Formic acid compound with 4-((1R)-1-hydroxy-2-{[2-(3-{[(4-hydroxybenzyl)oxy]methyl}phenyl)ethyl]amino}ethyl)-2-(hydroxymethyl)phenol (1:1)] | < 1000
16 | N#Cc1cccc(COCCOCc2cccc(CCNC[C@H](O)c3ccc(O)c(CO)c3)c2)c1 [Example 13, Formic acid compound with 3-{[2-({3-[2-({(2R)-2-hydroxy-2-[4-hydroxy-3-(hydroxymethyl)phenyl]ethyl}amino)ethyl]benzyl}oxy)ethoxy]methyl}benzonitrile (1:1)] | < 1000

Continued, values first:

Row | EC50 [nM] | Compound
17 | < 1000 | OCc1cc([C@@H](O)CNCCc2cccc(COCc3ccccc3F)c2)ccc1O [Example 48, Formic acid compound with 4-((1R)-2-{[2-(3-{[(2-fluorobenzyl)oxy]methyl}phenyl)ethyl]amino}-1-hydroxyethyl)-2-(hydroxymethyl)phenol (1:1)]
18 | < 1000 | N#Cc1cccc(COCc2cccc(CCNC[C@H](O)c3ccc(O)c(CO)c3)c2)c1 [Example 42, Formic acid compound with 3-[({3-[2-({(2R)-2-hydroxy-2-[4-hydroxy-3-(hydroxymethyl)phenyl]ethyl}amino)ethyl]benzyl}oxy)methyl]benzonitrile (1:1)]
19 | < 1000 | O=S(=O)(c1cccc(CCOCc2cccc(CCNC[C@H](O)c3ccc(O)c(CO)c3)c2)c1)C1CCCC1 [Example 60, Formic acid compound with 4-[(1R)-2-({2-[3-({2-[3-(cyclopentylsulfonyl)phenyl]ethoxy}methyl)phenyl]ethyl}amino)-1-hydroxyethyl]-2-(hydroxymethyl)phenol (1:1)]
20 | < 1000 | C[C@@H](OCc1cccc(CCNC[C@H](O)c2ccc(O)c(CO)c2)c1)c1ccccc1 [Example 44, Formic acid compound with 2-(hydroxymethyl)-4-[(1R)-1-hydroxy-2-({2-[3-({[(1R)-1-phenylethyl]oxy}methyl)phenyl]ethyl}amino)ethyl]phenol (1:1)]
21 | < 1000 | OCc1cc([C@@H](O)CNCCc2cccc(COCCc3ccccc3F)c2)ccc1O [Example 41, Formic acid compound with 4-((1R)-2-{[2-(3-{[2-(2-fluorophenyl)ethoxy]methyl}phenyl)ethyl]amino}-1-hydroxyethyl)-2-(hydroxymethyl)phenol (1:1)]
22 | < 1000 | OCc1cc([C@@H](O)CNCCc2cccc(COCCOc3ccccc3)c2)ccc1O [Example 38, Formic acid compound with 2-(hydroxymethyl)-4-{(1R)-1-hydroxy-2-[(2-{3-[(2-phenoxyethoxy)methyl]phenyl}ethyl)amino]ethyl}phenol (1:1)]
23 | < 1000 | OCc1cc([C@@H](O)CNCCc2cccc(COCc3ccc(F)cc3)c2)ccc1O [Example 50, Formic acid compound with 4-((1R)-2-{[2-(3-{[(4-fluorobenzyl)oxy]methyl}phenyl)ethyl]amino}-1-hydroxyethyl)-2-(hydroxymethyl)phenol (1:1)]
24 | < 1000 | OCc1cc([C@@H](O)CNCCc2cccc(COCCc3ccc(F)cc3)c2)ccc1O [Example 40, Formic acid compound with 4-((1R)-2-{[2-(3-{[2-(4-fluorophenyl)ethoxy]methyl}phenyl)ethyl]amino}-1-hydroxyethyl)-2-(hydroxymethyl)phenol (1:1)]
25 | < 1000 | OCc1cc([C@@H](O)CNCCc2cccc(COCc3c(Cl)cccc3Cl)c2)ccc1O [Example 47, Formic acid compound with 4-((1R)-2-{[2-(3-{[(2,6-dichlorobenzyl)oxy]methyl}phenyl)ethyl]amino}-1-hydroxyethyl)-2-(hydroxymethyl)phenol (1:1)]
26 | < 1000 | NC(=O)c1cccc(COCc2cccc(CCNC[C@H](O)c3ccc(O)c(CO)c3)c2)c1 [Example 53, Formic acid compound with 3-[({3-[2-({(2R)-2-hydroxy-2-[4-hydroxy-3-(hydroxymethyl)phenyl]ethyl}amino)ethyl]benzyl}oxy)methyl]benzamide (1:1)]
27 | < 1000 | NC(=O)Nc1cccc(CCCCOCc2cccc(CCNC[C@H](O)c3ccc(O)c(CO)c3)c2)c1 [Example 58, Formic acid compound with N-{3-[4-({3-[2-({(2R)-2-hydroxy-2-[4-hydroxy-3-(hydroxymethyl)phenyl]ethyl}amino)ethyl]benzyl}oxy)butyl]phenyl}urea (1:1)]
